In PMC10487436, “Towards Anticancer and Antibacterial Agents: Design and Synthesis of 1,2,3-Triazol-quinobenzothiazine Derivatives” (International Journal of Molecular Sciences, 2023):

Tests used:
[1] = tested on: SNB-19 (human glioblastoma); experiment: WST-1 proliferation assay, SNB-19; type: cell-based; conditions: Homo sapiens, SNB-19, 72 h exposure
Description: (§1) Compounds were evaluated for their antiproliferative activity using three cultured cell lines: A549 (human lung carcinoma, ATCC, Manassas, VA, USA), SNB-19 (human glioblastoma, DSMZ, German Collection of Microorganisms and Cell Cultures), T-47D (human breast cancer, ATCC, Manassas, VA, USA), and NHDF (normal human dermal fibroblasts, ATCC, Manassas, VA, USA). The cultured cells were kept at 37 °C and 5% CO2. The cells were seeded (1 × 10^4 cells/well/100 μL DMEM supplemented with 10% FCS, streptomycin, and penicillin) using 96-well plates (corning). Cells were counted in a hemocytometer (Burker chamber) using a phase contrast Olympus IX50 microscope equipped with a Sony SSC-DC58 AP camera and an Olympus DP10 digital camera.
(§2) The antiproliferative effect of the compounds exerted on cancer and normal cells was determined using the Cell Proliferation Reagent WST-1 assay (Roche Molecular Biochemicals, Mannheim, Germany). This assay is based on a colorimetric method using the enzymatic ability of viable cells to cause the bright, red-colored stable tetrazolium monosodium salt [2-(4-iodophenyl)-3-(4-nitrophenyl)-5-(2,4-disulfophenyl)–2H-tetra-zolium] to transform into the dark, red-colored soluble formazan. […] An increase in the amount of formazan dye formed correlated with the number of metabolically active cells in the culture. The formazan dye produced by metabolically active cells was quantified by absorbance readings at appropriate wavelengths. The examined cells were exposed to the tested compounds (1 mM DMSO stock) for 72 h at various concentrations (0.1–100 μM). The control was performed in order to eliminate the DMSO effect at the concentration used. Cell cultures were incubated with WST-1 (10 μL) for 1 h. The absorbance of the samples was measured against a background control at 450 nm using a microplate reader with a reference wavelength at 600 nm. The obtained results are expressed as the means of at least two independent experiments performed in triplicate. The antiproliferative activity of the tested compounds was compared to that of cisplatinum. The values of IC50 (a concentration of a compound that is required for 50% inhibition) were calculated from the dose-response relationship with respect to control. The results were reported as the mean (±std) of three separate experiments.

[2] = tested on: A549 (human lung carcinoma); experiment: WST-1 proliferation assay, A549; type: cell-based; conditions: Homo sapiens, A549, 72 h exposure
Description: as §1, §2

[3] = tested on: T-47D (human breast cancer); experiment: WST-1 proliferation assay, T47D; type: cell-based; conditions: Homo sapiens, T47D, 72 h exposure
Description: as §1, §2

[4] = tested on: NHDF (normal human dermal fibroblasts); experiment: WST-1 proliferation assay, NHDF; type: cell-based; conditions: Homo sapiens, NHDF, normal cells, 72 h exposure
Description: as §1, §2

[5] = tested on: Staphylococcus aureus ATCC 29213; experiment: MIC, microtitration broth method, SA; type: cell-based; conditions: ATCC29213, 24 h at 37 °C
Description: (§3) In vitro antibacterial activity of the synthesized compounds was evaluated against representatives of multidrug-resistant bacteria, three clinical isolates of methicillin-resistant S. aureus: clinical isolates of animal origin, MRSA 63718 (Department of Infectious Diseases and Microbiology, Faculty of Veterinary Medicine, University of Veterinary Sciences Brno, Czech Republic), carrying the mecA gene; and MRSA SA 630 and MRSA SA 3202 [52] (National Institute of Public Health, Prague, Czech Republic), both of human origin. […] Vancomycin- and methicillin-susceptible S. aureus ATCC 29213 and vancomycin-susceptible Enterococcus faecalis ATCC 29212, obtained from the American Type Culture Collection, were used as the reference and quality control strains. Three vanA gene-carrying vancomycin-resistant isolates of E. faecalis (VRE 342B, VRE 368, VRE 725B) were provided by Oravcova et al..
(§4) The minimum inhibitory concentrations (MICs) were evaluated by the microtitration broth method according to the CLSI, with some modifications. The compounds were dissolved in DMSO (Sigma, St. Louis, MO, USA) to obtain a concentration of […] and diluted in a microtitration plate in an appropriate medium, i.e., Cation Adjusted Mueller–Hinton Broth (CaMH, Oxoid, Basingstoke, UK) for staphylococci, and Brain Heart Infusion Broth (BHI, Oxoid) for enterococci, to reach the final concentration of 256–0.125 µg/mL. Microtiter plates were inoculated with test micro-organisms so that the final concentration of bacterial cells was 10^5. […] A drug-free control and a sterility control were included. The plates were incubated for 24 h at 37 °C for staphylococci and enterococci. […] The experiments were repeated three times.

[6] = tested on: methicillin-resistant S. aureus SA 3202; experiment: MIC, microtitration broth method, MRSA1; type: cell-based; conditions: Staphylococcus aureus; 24 h at 37 °C
Description: as §3, §4

[7] = tested on: methicillin-resistant S. aureus SA 630; experiment: MIC, microtitration broth method, MRSA2; type: cell-based; conditions: Staphylococcus aureus; 24 h at 37 °C
Description: as §3, §4

[8] = tested on: methicillin-resistant S. aureus 63718; experiment: MIC, microtitration broth method, MRSA3; type: cell-based; conditions: Staphylococcus aureus; 24 h at 37 °C
Description: as §3, §4

[9] = tested on: Enterococcus faecalis ATCC 29213; experiment: MIC, microtitration broth method, EF; type: cell-based; conditions: ATCC29213, 24 h at 37 °C
[10] = tested on: vancomycin-resistant E. faecalis VRE 342B; experiment: MIC, microtitration broth method, VRE1; type: cell-based; conditions: Enterococcus faecalis, 24 h at 37 °C
Description: as §3, §4

[11] = tested on: vancomycin-resistant E. faecalis VRE 368; experiment: MIC, microtitration broth method, VRE2; type: cell-based; conditions: Enterococcus faecalis, 24 h at 37 °C
Description: as §3, §4

[12] = tested on: vancomycin-resistant E. faecalis VRE 725B; experiment: MIC, microtitration broth method, VRE3; type: cell-based; conditions: Enterococcus faecalis, 24 h at 37 °C
Description: as §3, §4

[13] = tested on: Mycobacterium smegmatis ATCC 700084; experiment: MIC, broth dilution micro-method, MS; type: cell-based; conditions: Mycolicibacterium smegmatis, ATCC700084, 72 h; 3 days at 37 °C
[14] = tested on: Mycobacterium marinum CAMP 5644; experiment: MIC, broth dilution micro-method, MM; type: cell-based; conditions: CAMP5644, 504 h, 21 days at 28 °C
[15] = tested on: methicillin-resistant S. aureus 63718; experiment: MBC, agar aliquot subculture method, MRSA3; type: cell-based; conditions: Staphylococcus aureus
Description: (§5) For the above-mentioned strains/isolates, the agar aliquot subculture method was used as a test for bactericidal agents. After the MIC value determination, the inoculum was transferred to CaMH (Oxoid) for staphylococci, BHI (Oxoid) for enterococci, and Middlebrook 7H9 (Difco) for mycobacteria medium using a multipoint inoculator. As indicated above, the plates were incubated on a thermostat at 37 °C for the appropriate time for each micro-organism. The lowest concentration of test compound at which ≤5 colonies were obtained was then evaluated as MBC, corresponding to a 99.9% decrease in CFU relative to the original inoculum.

[16] = tested on: Mycobacterium smegmatis ATCC 700084; experiment: MBC, agar aliquot subculture method, MS; type: cell-based; conditions: Mycolicibacterium smegmatis, ATCC700084
Description: as §5

[17] = tested on: Mycobacterium marinum CAMP 5644; experiment: MBC, agar aliquot subculture method, MM; type: cell-based; conditions: CAMP5644
Description: as §5

[18] = tested on: Staphylococcus aureus ATCC 29213; experiment: MBC, agar aliquot subculture method, SA; type: cell-based; conditions: ATCC29213
Description: as §5

[19] = tested on: methicillin-resistant S. aureus SA 3202; experiment: MBC, agar aliquot subculture method, MRSA1; type: cell-based; conditions: Staphylococcus aureus
Description: as §5

[20] = tested on: methicillin-resistant S. aureus SA 630; experiment: MBC, agar aliquot subculture method, MRSA2; type: cell-based; conditions: Staphylococcus aureus
Description: as §5

[21] = tested on: Mycobacterium smegmatis ATCC 700084; conditions: 3 days

Row | SMILES | IC50 [1] [µM] | IC50 [2] [µM] | IC50 [3] [µM] | MIC [5] [µM] | MIC [6] [µM] | MIC [7] [µM] | MIC [8] [µM] | MIC [9] [µM] | MIC [10] [µM] | MIC [11] [µM] | MIC [12] [µM] | MIC [13] [µM] | MIC [14] [µM] | IC50 [4] [µM] | MBC [15] [µM] | MBC [16] [µM] | MBC [17] [µM] | MBC [18] [µM] | MBC [19] [µM] | MBC [20] [µM] | other results
1 | C[n+]1cc2c(c3ccccc31)Nc1ccc(OCc3cn(Cc4ccc([N+](=O)[O-])cc4)nn3)cc1S2 [2g, 5-Methyl-9-[1-(4-nitrobenzyl)-1H-1,2,3-triazol-4-yl]methoxy-12H-quino [3,4-b][1,4]benzothiazinium chloride] | 8.4 ± 0.7 | 4.5 ± 0.3 | 11.8 ± 0.5 | 262 | 262 | 262 | 65.5 | 262 | 524 | 262 | 131 | 32.7 | 65.5 | 27.6 ± 0.6 | 65.5 | 65.5 | 131 | 262 | 262 |  | 
2 | C[n+]1cc2c(c3ccccc31)Nc1cc(OCc3cn(-c4ccc(Cl)cc4)nn3)ccc1S2 [2n, 5-Methyl-10-(1-(4-chlorophenyl)-1H-1,2,3-triazol-4-yl)methoxy-12H-quino [3,4-b][1,4]benzothiazinium chloride] | 42.9 ± 1.8 | 14.3 ± 0.8 | 15.4 ± 1.1 | > 524 | > 524 | > 524 | 262 | > 524 | > 524 | > 524 | > 524 | 16.3 | 32.7 | > 100 | 262 | 16.3 | 32.7 |  |  |  | Conc.: lowest multiple of MBC with at least 70% inhibition of respiratory activity ([21]; MTT): 1× MIC (1× MBC); Conc.: lowest multiple of MIC with at least 70% inhibition of respiratory activity ([21]; MTT): 1× MIC (1× MBC); viability of M. smegmatis at MIC value ([21]; Mycobacterium smegmatis): less than 70%; M. smegmatis Respiration Inhibition ([21]; at the concentration (lowest multiple of MIC with at least 70% inhibition)): 85.9%

The next lines start with results.

Row | IC50 [1] [µM] | IC50 [2] [µM] | IC50 [3] [µM] | MIC [5] [µM] | MIC [6] [µM] | MIC [7] [µM] | MIC [8] [µM] | MIC [9] [µM] | MIC [10] [µM] | MIC [11] [µM] | MIC [12] [µM] | MIC [13] [µM] | MIC [14] [µM] | SMILES | IC50 [4] [µM] | MBC [15] [µM] | MBC [16] [µM] | MBC [17] [µM] | MBC [18] [µM] | MBC [19] [µM] | MBC [20] [µM] | other results
3 | 2.7 ± 0.4 | 1.8 ± 0.2 | 5.3 ± 0.6 | 524 | > 524 | > 524 | 262 | > 524 | > 524 | > 524 | 524 | 65.5 | 65.5 | C=CCn1cc(COc2ccc3c(c2)Nc2c(c[n+](C)c4ccccc24)S3)nn1 [2b, 5-Methyl-10-(1-allyl-1H-1,2,3-triazol-4-yl)methoxy-12H-quino [3,4-b][1,4]benzothiazinium chloride] | > 100 | 262 | 65.5 | 65.5 |  |  |  | 
4 | 2.5 ± 0.1 | 6.3 ± 0.4 | 8.6 ± 0.7 | 131 | 131 | 131 | 65.5 | > 524 | > 524 | > 524 | > 524 | 32.7 | 32.7 | C[n+]1cc2c(c3ccccc31)Nc1ccc(OCc3cn(Cc4ccccc4)nn3)cc1S2 [2d, 5-Methyl-9-(1-benzyl-1H-1,2,3-triazol-4-yl)methoxy-12H-quino [3,4-b][1,4]benzothiazinium chloride] | > 100 | 65.5 | 32.7 | 32.7 | 65.5 | 131 | 131 | 
5 | 3.4 ± 0.3 | 8.4 ± 0.6 | 12.5 ± 0.8 | 32.8 | 65.5 | 65.5 | 16.3 | 524 | 524 | 524 | 524 | 32.7 | 32.7 | C[n+]1cc2c(c3ccccc31)Nc1cc(OCc3cn(Cc4ccccc4)nn3)ccc1S2 [2e, 5-Methyl-10-(1-benzyl-1H-1,2,3-triazol-4-yl)methoxy-12H-quino [3,4-b][1,4]benzothiazinium chloride] | 56.6 ± 4.2 | 16.3 | 32.7 | 32.7 | 65.5 | 65.5 | 65.5 | 
